Patent publication US9161925B2, “Therapeutic uses of beta-3 adrenergic receptor agonist derivatives in particular to modulate apoptosis” (SANOFI, priority 2007, dated 2015)

How the values were obtained:
Type in all cases: cell-based, human
[1] = tested on: cleaved caspase-3 protein; experiment: Western blot of cleaved caspase-3 in myometrial strips stimulated with LPS
Protocol: (§1) Myometrial biopsies obtained from women with uncomplicated pregnancies were immediately transferred in sterile Dubelcco's Modified Eagle Medium (DMEM) and washed twice with sterile Phosphate Buffer Saline (PBS). Biopsies were cut into small strips, each being placed in a 24-well plate containing 2 ml of culture medium DMEM, without the use of antibiotics. Strips were then incubated at 37° C. with 5% CO2 for 48 h in order to allow cytokine levels to return to basal values (Fortunato S J, et al. Am J Reprod Immunol 1994; 32: 184-187). […]
(§2) Snap-frozen myometrial tissues were homogenized with Ultra-Turrax in homogenization buffer [10 mM Tris-HCl (pH 7.4), 1 mM EDTA, […] leupeptine, 2 mM Pefabloc]. After an initial centrifugation at 500×g for 15 min at 4° C., total protein supernatant content was determined by the Bradford method with BSA as standard. […] Immunoreactive proteins were detected by chemiluminescence (ECL™ detection reagents, RPN2105, Amersham, USA) and exposure to a X-ray film (Hyperfilm™, Amersham Bioscience, USA). The intensities of the bands were analyzed densitometrically using the NIH Image 1.62 program and normalized with intensity of bands obtained with monoclonal antibody to Glyceraldehyde 3-Phosphate Dehydrogenase (GAPDH) used as protein loading control. Results are expressed as the mean±s.e.m. in Arbitrary Density Unit (A.D.U).

[2] = tested on: BAX protein; experiment: Western blot of BAX in myometrial strips stimulated with LPS
Protocol: as §1, §2

[3] = tested on: BCL2 protein; experiment: Western blot of BCL2 in myometrial strips stimulated with LPS
Protocol: as §1, §2

[4] = tested on: caspase-3 transcripts; experiment: Real time quantitative RT-PCR of caspase-3 transcripts in myometrial tissue; details: LPS alone 2.08±0.63
Protocol: (§3) Myometrial biopsies obtained from women with uncomplicated pregnancies were immediately transferred in sterile Dubelcco's Modified Eagle Medium (DMEM) and washed twice with sterile Phosphate Buffer Saline (PBS). Biopsies were cut into small strips, each being placed in a 24-well plate containing 2 ml of culture medium DMEM, without the use of antibiotics. Strips were then incubated at 37° C. with 5% CO2 for 48 h in order to allow cytokine levels to return to basal values (Fortunato S J, et al. Am J Reprod Immunol 1994; 32: 184-187).
In order to reproduce with LPS (Escherichia coli 055:B5) the findings on myometrial samples obtained from women with chorioamnionitis, myometrial strips were incubated with three different concentrations of LPS (50 ng/ml, 1 μg/ml and 10 μg/ml) at three different times (8 h, 24 h, 48 h). In a second set of experiments, in order to assess the role of TNF in LPS-induced apoptosis in myometrial tissue, the strips were incubated with LPS 10 μg/ml for 48 h with or without anti TNF antibodies (0.6 μg/ml) (Human TNF alpha/TNFSF1A antibody, R&D systems Europe, Lille, France, the concentration of the antibody used was chosen based on the manufacturer's recommendations). […]
Total RNA was prepared from 5 myometrial tissues obtained from 5 different women, using Trizol solution (Life Technologies, Groningen, The Netherlands) according to the manufacturer's instructions. […] Real time quantitative PCR analyses were performed using 25 ng of reverse transcribed total RNA with 200 nM of both sense and anti sense primers in a final volume of 25 μl using the SYBR Green PCR jumpstart reagent (Sigma, Saint Louis, Mo., USA) in an iCycler iQ real time detection system instrument (Bio-Rad, Marnes-la-Coquette, France). PCR products were also analyzed on edithium bromide stained agarose gel to ensure that a single amplicon of the expected size was indeed obtained. […]

[5] = tested on: IL6; experiment: Cytometric Bead Array, IL6 in supernatants of myometrial strips
Protocol: as §3
(§4) In order to reproduce with LPS (Escherichia coli 055:B5) the findings on myometrial samples obtained from women with chorioamnionitis, myometrial strips were incubated with three different concentrations of LPS (50 ng/ml, 1 μg/ml and 10 μg/ml) at three different times (8 h, 24 h, 48 h). […]
(§5) Cytokines measurements were determined by Cytometric Bead Array (CBA; Bender MedSystems). Supernatants of 5 myometrial strips were incubated with labeled capture beads and detection reagent for 3 h in the dark at room temperature, and analyzed with a flow cytometer (FACSCalibur; BD Biosciences) by using the respective CBA Analysis software (BD Biosciences) and Bender MedSystems software. Cytokine standards for quantification (pg/mL) as well as the blanks were handled in the same manner as the samples. […]

[6] = tested on: IL8; experiment: Cytometric Bead Array, IL8 in supernatants of myometrial strips
Protocol: as §3, §4, §5

[7] = tissues not stimulated with LPS (data not shown)
[8] = Compound A 10^-7, 10^-6, 10^-5 M with LPS 10 μg/ml 48 h, ANOVA P<0.01, FIG. 4

Compound: CCOC(=O)c1ccc([C@H]2CC[C@H](NC[C@H](O)COc3ccc(O)c(NS(C)(=O)=O)c3)CC2)cc1.Cl [Compound A, Ethyl-4-{trans-4-[((2S)-2-hydroxy-3-{4-hydroxy-3[(methylsulfonyl)-amino]phenoxy}propyl)amino]cyclohexyl}benzoate hydrochloride]
- antagonism of LPS-induced changes in cleaved caspase-3 expression ([1]; Compound A 10^-7, 10^-6, 10^-5 M with LPS 10 μg/ml 48 h, concentration dependent, ANOVA P<0.001, FIG. 3): significantly antagonize
- effect by itself on cleaved caspase-3 expression [1, 7]: no effect
- antagonism of LPS-induced BAX protein up-regulation [2, 8]: antagonized in a concentration dependant manner
- effect by itself on BAX expression [2, 7]: no effect
- antagonism of LPS-induced BCL2 protein down-regulation [3, 8]: antagonized in a concentration dependant manner
- effect by itself on BCL2 expression [3, 7]: no effect
- caspase-3 transcripts, fold increase normalized to GAPDH compared with controls ([4]; LPS with Compound A 10^-5 M): 0.93±0.41 fold
- caspase-3 transcripts, fold increase normalized to GAPDH compared with controls ([4]; LPS with Compound A 10^-6 M): 0.84±0.53 fold
- caspase-3 transcripts, fold increase normalized to GAPDH compared with controls ([4]; LPS with Compound A 10^-7 M): 1.17±0.81 fold
- effect on LPS-induced IL6 ([5]; Compound A with LPS, concentration dependent, not statistically significant, FIG. 5): decreased
- effect by itself on IL6 release [5, 7]: not effect
- effect on LPS-induced IL8 ([6]; Compound A with LPS, concentration dependent, ANOVA P=0.01, FIG. 5): decreased
- effect by itself on IL8 release [6, 7]: not effect
